Experimental data published in US8030481B2, “Stevioside polymorphic and amorphous forms, methods for their formulation, and uses” (The Coca-Cola Company, priority 2007, dated 2011).

What was measured:
[1] = room temperature; from U.S. Pat. No. 4,082,858; cited from earlier work
[2] = moisture content (Karl Fischer analysis); format: physicochemical
Method: Karl-Fischer analysis also was performed on the stevioside compositions obtained hereinbelow to determine the water content using a Mettler Toledo DL39 Karl Fischer titrator. Approximately 11-56 mg of sample were dissolved in approximately 3.5-3.7 g of dry Hydranal-Coulmat AD. Approximately 0.9-1.0 g of the resulting solution was placed in the KF titration vessel containing Hydranal-Coulomat AD and mixed for 10 seconds to ensure dissolution. The sample was titrated by means of a generator electrode which produces iodine by electrochemical oxidation: 2 I^−→I2+2e. The experiments were repeated in triplicate to ensure reproducibility.

[3] = rate of dissolution in H2O at 25° C.; format: physicochemical; settings: for Rate of dissolution in H2O at 25° C.: time: time for the amount printed in the same cell (see E2); for Rate of dissolution in H2O at 25° C.: amount dissolved: within the time printed in the same cell (see E3)

Moisture content [2] [%] | Rate of dissolution in H2O at 25° C.: time [3] [min] | Rate of dissolution in H2O at 25° C.: amount dissolved [3] [% in] | rate of dissolution as compared to the polymorph forms of stevioside ([3]; in words) | SMILES | water solubility [1]
<4 | <1.0 | 10.0 | – | C=C1C[C@@]23CC[C@H]4[C@@](C)(CCC[C@@]4(C)C(=O)O[C@@H]4O[C@H](CO)[C@@H](O)[C@H](O)[C@H]4O)[C@@H]2CC[C@]1(O[C@@H]1O[C@H](CO)[C@@H](O)[C@H](O)[C@H]1O[C@@H]1O[C@H](CO)[C@@H](O)[C@H](O)[C@H]1O)C3 [Form 2B, stevioside] | –
~3 | <1.0 | 40.0 | improved rate of dissolution | C=C1C[C@@]23CC[C@H]4[C@@](C)(CCC[C@@]4(C)C(=O)O[C@@H]4O[C@H](CO)[C@@H](O)[C@H](O)[C@H]4O)[C@@H]2CC[C@]1(O[C@@H]1O[C@H](CO)[C@@H](O)[C@H](O)[C@H]1O[C@@H]1O[C@H](CO)[C@@H](O)[C@H](O)[C@H]1O)C3 [Form 4, stevioside] | –

More lines, now with the values behind:

SMILES | Moisture content [2] [%] | Rate of dissolution in H2O at 25° C.: time [3] [min] | Rate of dissolution in H2O at 25° C.: amount dissolved [3] [% in] | rate of dissolution as compared to the polymorph forms of stevioside ([3]; in words) | water solubility [1]
C=C1C[C@@]23CC[C@H]4[C@@](C)(CCC[C@@]4(C)C(=O)O[C@@H]4O[C@H](CO)[C@@H](O)[C@H](O)[C@H]4O)[C@@H]2CC[C@]1(O[C@@H]1O[C@H](CO)[C@@H](O)[C@H](O)[C@H]1O[C@@H]1O[C@H](CO)[C@@H](O)[C@H](O)[C@H]1O)C3 [stevioside, Stevioside] | – | – | – | – | approximately 1.25 g/L
C=C1C[C@@]23CC[C@H]4[C@@](C)(CCC[C@@]4(C)C(=O)O[C@@H]4O[C@H](CO)[C@@H](O)[C@H](O)[C@H]4O)[C@@H]2CC[C@]1(O[C@@H]1O[C@H](CO)[C@@H](O)[C@H](O)[C@H]1O[C@@H]1O[C@H](CO)[C@@H](O)[C@H](O)[C@H]1O)C3 [Form 1, stevioside] | >5 | 30 | <0.075 | – | –
C=C1C[C@@]23CC[C@H]4[C@@](C)(CCC[C@@]4(C)C(=O)O[C@@H]4O[C@H](CO)[C@@H](O)[C@H](O)[C@H]4O)[C@@H]2CC[C@]1(O[C@@H]1O[C@H](CO)[C@@H](O)[C@H](O)[C@H]1O[C@@H]1O[C@H](CO)[C@@H](O)[C@H](O)[C@H]1O)C3 [Form 2 A, stevioside] | <3 | 2 | <0.6 | – | –
